Data reported in article PMC7736581, “Activation of the IRE1 RNase through remodeling of the kinase front pocket by ATP-competitive ligands” (Nature Communications, 2020).
Read-outs that look alike come from different tables or passages of the source.

How the values were obtained:
[1] = target: Inositol-Requiring Enzyme 1 (IRE1) (Homo sapiens, UniProt O75460); test: biochemical; design: gene ERN1; IRE1 cytoplasmic kinase-RNase construct; kinetic fluorescence RNA cleavage (FAM/BHQ XBP1 stem-loop) by IRE1 LKR Q470-L977
Experimental: A 5′-Carboxyfluorescein (FAM)-and 3′-Black Hole Quencher (BHQ)-labeled single stem-loop mini-substrate containing XBP1 sequence (sequence reported in Supplementary Table 4) was used as substrate for cleavage by IRE1 LKR (Q470-L977) or IRE1 KR (G547-L977) in 20 mM HEPES pH 7.5, 50 mM potassium acetate, 1 mM magnesium acetate, 1 mM dithiothreitol, 0.05% v/v TritonX-100. Concentrations were as follows: 8 nM IRE1 LKR and 200 nM RNA substrate; 22 nM IRE1 KR-0P and 200 nM RNA substrate; 2 nM IRE1 KR 3P and 500 nM RNA substrate. RNA cleavage was measured kinetically over an hour at room temperature as an increase in fluorescence. The final reaction was carried out in 20 µL in 384-well plates. Samples were run in duplicate. To investigate whether this peculiar conformation had any role in the mechanism of activation of G-1749, we evaluated different tails to substitute the ethyl carbamate on the naphthyl moiety (Fig. 3, Supplementary Table 2). […] This is likely due to clashes with residues lining the front pocket, which in turn would force the tails to occupy the back pocket and break the salt bridge, thereby causing RNase inhibition. […] Experiments in KMS-11 cells (Fig. 3b, c, right panels) confirmed the effect of these tail modifications on IRE1 RNase activation. […] The chemical substituents tolerated by the front pocket seem to be very limited: even a minor substitution of the carbamate oxygen atom to a larger [compound left out], from ethyl carbamate to propyl amide (compound 6), or from methyl carbamate to methyl or ethyl amide (compound 4 or 5, respectively), or increasing the tail length by one atom, from ethyl to propyl carbamate (compound 11), is enough to impart a switch from activation to inhibition (Fig. 3b, c). […] RNA cleavage was measured by a kinetic fluorescence assay using an XBP1-like RNA hairpin substrate and IRE1 LKR construct (Q470-L977). Background from the no-protein control was subtracted from signal before calculating fold change. Source data are provided as a Source Data file. Data are presented as the mean for measurements from two independent experiments (n = 2). c RNA levels for IRE1 RNase product XBP1s measured by bDNA assay of lysates from KMS-11 cells treated with compounds for 4 h. Background from the no-RNA control was subtracted from signal before calculating fold change. Source data are provided as a Source Data file. Data are presented as the mean for measurements from two independent experiments (n = 2). d, e Analytical Ultracentrifugation sedimentation velocity (SV-AUC) experiments for (d), IRE1 LKR (Q470-L977) unphosphorylated and autophosphorylated and (e), IRE1 LKR unphosphorylated in the presence of slight excess G-9807 and G-1749. Calculated sedimentation coefficients for IRE1 monomer (3.1 svedbergs) and dimer (4.6 svedbergs) are highlighted by dotted lines. Source data are provided as a Source Data file.

[2] = tested on: T1, IRE1 (endogenous, KMS-11); test: cells; design: XBP1s mRNA by branched DNA assay in KMS-11 cell lysates after compound treatment; details: Homo sapiens, KMS-11, 4 h
T1 construct: endogenous full-length in KMS-11 cells
Experimental: 15-20k KMS-11 cells in RPMI growth media were seeded into 96-well plates and treated with compounds or DMSO control over a period of 4 h the following day. RNA levels of XBP1s and DGAT2 in KMS-11 cell lysates were measured using the QuantiGene 2.0 bDNA assay technology (Thermofisher). See Supplementary Table 4 for sequences of relevant capture probes. Data analysis was carried out against an assay background control with no cell lysate (no-RNA control). In the case of AMG-18, cells were also stimulated with thapsigargin (Tg, 100 nM) 30 min after compound addition. No Tg was used when treating cells with all other compounds. Samples were run in duplicate. To investigate whether this peculiar conformation had any role in the mechanism of activation of G-1749, we evaluated different tails to substitute the ethyl carbamate on the naphthyl moiety (Fig. 3, Supplementary Table 2). […] This is likely due to clashes with residues lining the front pocket, which in turn would force the tails to occupy the back pocket and break the salt bridge, thereby causing RNase inhibition. […] Experiments in KMS-11 cells (Fig. 3b, c, right panels) confirmed the effect of these tail modifications on IRE1 RNase activation. […] The chemical substituents tolerated by the front pocket seem to be very limited: even a minor substitution of the carbamate oxygen atom to a larger [compound left out], from ethyl carbamate to propyl amide (compound 6), or from methyl carbamate to methyl or ethyl amide (compound 4 or 5, respectively), or increasing the tail length by one atom, from ethyl to propyl carbamate (compound 11), is enough to impart a switch from activation to inhibition (Fig. 3b, c). […] RNA cleavage was measured by a kinetic fluorescence assay using an XBP1-like RNA hairpin substrate and IRE1 LKR construct (Q470-L977). Background from the no-protein control was subtracted from signal before calculating fold change. Source data are provided as a Source Data file. Data are presented as the mean for measurements from two independent experiments (n = 2). c RNA levels for IRE1 RNase product XBP1s measured by bDNA assay of lysates from KMS-11 cells treated with compounds for 4 h. Background from the no-RNA control was subtracted from signal before calculating fold change. Source data are provided as a Source Data file. Data are presented as the mean for measurements from two independent experiments (n = 2). d, e Analytical Ultracentrifugation sedimentation velocity (SV-AUC) experiments for (d), IRE1 LKR (Q470-L977) unphosphorylated and autophosphorylated and (e), IRE1 LKR unphosphorylated in the presence of slight excess G-9807 and G-1749. Calculated sedimentation coefficients for IRE1 monomer (3.1 svedbergs) and dimer (4.6 svedbergs) are highlighted by dotted lines. Source data are provided as a Source Data file.

DYRK4 = DYRK4 (Homo sapiens, UniProt Q9NR20); test: biochemical; design: Invitrogen kinase panel: Z'Lyte activity (ATP at Km) or LanthaScreen competitive ATP-site binding, percent inhibition
DRAK1 = target: T2, DRAK1 (Homo sapiens, UniProt Q9UEE5); test: biochemical; design: Invitrogen kinase panel: Z'Lyte activity (ATP at Km) or LanthaScreen competitive ATP-site binding, percent inhibition
T2 construct: gene STK17A

JAK2 = JAK2 (Homo sapiens, UniProt O60674); test: biochemical; design: Invitrogen kinase panel: Z'Lyte activity (ATP at Km) or LanthaScreen competitive ATP-site binding, percent inhibition
[3] = RNase activation, read-out: EC50 (RNase biochemical assay), activators
[4] = XBP1s mRNA increase, read-out: EC50 (KMS-11 bDNA assay, XBP1s), activators

Chain of Inositol-Requiring Enzyme 1 (IRE1) (O75460 547-977): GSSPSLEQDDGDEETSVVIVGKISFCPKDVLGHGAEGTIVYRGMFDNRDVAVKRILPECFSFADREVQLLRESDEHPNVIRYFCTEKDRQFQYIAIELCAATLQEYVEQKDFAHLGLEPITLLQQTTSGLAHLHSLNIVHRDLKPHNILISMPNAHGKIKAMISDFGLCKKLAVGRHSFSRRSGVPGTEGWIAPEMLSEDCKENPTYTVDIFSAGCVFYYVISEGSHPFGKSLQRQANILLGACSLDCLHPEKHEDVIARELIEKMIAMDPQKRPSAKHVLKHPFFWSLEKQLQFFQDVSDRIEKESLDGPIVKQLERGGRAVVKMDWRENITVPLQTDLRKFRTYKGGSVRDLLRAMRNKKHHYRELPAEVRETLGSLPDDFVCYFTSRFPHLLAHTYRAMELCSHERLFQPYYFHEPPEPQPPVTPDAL
Chain of DYRK4 (Q9NR20 whole entry): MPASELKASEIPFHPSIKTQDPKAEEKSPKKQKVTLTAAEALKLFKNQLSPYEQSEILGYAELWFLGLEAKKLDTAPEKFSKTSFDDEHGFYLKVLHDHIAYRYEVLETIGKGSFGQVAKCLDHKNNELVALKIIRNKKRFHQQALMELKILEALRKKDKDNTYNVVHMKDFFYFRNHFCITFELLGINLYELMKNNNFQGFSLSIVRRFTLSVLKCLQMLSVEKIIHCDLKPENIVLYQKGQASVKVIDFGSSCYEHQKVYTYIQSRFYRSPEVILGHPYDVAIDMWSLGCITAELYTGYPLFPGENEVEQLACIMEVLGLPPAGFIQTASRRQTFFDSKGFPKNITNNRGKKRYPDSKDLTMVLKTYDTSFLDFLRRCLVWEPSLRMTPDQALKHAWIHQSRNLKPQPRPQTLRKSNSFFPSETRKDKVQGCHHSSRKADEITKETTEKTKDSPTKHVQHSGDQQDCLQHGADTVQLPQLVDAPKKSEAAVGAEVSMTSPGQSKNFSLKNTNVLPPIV
Chain of JAK2 (O60674 whole entry): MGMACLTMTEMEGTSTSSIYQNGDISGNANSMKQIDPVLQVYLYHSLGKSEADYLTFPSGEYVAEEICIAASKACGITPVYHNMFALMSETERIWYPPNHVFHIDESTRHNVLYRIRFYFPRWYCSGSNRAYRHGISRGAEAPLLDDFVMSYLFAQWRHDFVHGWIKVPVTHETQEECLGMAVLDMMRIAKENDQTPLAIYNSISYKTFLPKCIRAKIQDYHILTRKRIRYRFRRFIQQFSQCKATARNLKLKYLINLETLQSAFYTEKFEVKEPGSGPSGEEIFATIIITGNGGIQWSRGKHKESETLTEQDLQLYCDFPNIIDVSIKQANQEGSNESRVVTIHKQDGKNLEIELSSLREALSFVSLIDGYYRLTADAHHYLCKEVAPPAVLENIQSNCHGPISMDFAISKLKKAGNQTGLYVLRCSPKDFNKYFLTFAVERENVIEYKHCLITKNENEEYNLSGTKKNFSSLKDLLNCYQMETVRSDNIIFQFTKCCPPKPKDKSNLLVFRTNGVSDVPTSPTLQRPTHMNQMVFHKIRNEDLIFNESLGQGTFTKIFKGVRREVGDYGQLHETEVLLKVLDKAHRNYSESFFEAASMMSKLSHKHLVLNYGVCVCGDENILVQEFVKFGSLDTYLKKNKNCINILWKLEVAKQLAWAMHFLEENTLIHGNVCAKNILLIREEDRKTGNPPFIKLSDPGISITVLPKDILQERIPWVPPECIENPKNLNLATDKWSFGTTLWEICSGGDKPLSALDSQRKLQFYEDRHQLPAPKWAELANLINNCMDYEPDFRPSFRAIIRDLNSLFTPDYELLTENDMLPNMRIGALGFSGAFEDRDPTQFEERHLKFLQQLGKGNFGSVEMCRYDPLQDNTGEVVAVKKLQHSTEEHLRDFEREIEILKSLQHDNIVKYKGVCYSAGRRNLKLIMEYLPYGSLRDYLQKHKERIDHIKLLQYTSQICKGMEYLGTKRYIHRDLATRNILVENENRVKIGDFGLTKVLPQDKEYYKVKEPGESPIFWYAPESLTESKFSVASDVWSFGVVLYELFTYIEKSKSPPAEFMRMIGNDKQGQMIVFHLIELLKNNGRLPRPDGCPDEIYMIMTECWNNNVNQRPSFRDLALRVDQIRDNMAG
T2 sequence (Q9UEE5 whole entry): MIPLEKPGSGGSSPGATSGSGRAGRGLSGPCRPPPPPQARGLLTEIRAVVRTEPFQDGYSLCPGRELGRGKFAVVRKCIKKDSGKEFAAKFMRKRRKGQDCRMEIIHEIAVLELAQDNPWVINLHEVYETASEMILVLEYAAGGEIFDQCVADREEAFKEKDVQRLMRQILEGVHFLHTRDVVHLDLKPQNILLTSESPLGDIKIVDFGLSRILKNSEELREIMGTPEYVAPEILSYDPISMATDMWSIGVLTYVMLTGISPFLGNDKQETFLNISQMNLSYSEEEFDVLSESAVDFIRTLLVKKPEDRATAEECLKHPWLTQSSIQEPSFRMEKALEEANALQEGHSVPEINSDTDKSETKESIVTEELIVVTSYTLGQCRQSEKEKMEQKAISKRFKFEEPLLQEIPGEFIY

| SMILES | EC50 ([1]; RNase inhibition, read-out: EC50 (RNase biochemical assay), inhibitors) [µM] | EC50 ([2]; 100 nM thapsigargin stimulation, XBP1s mRNA decrease, read-out: EC50 (KMS-11 bDNA assay, XBP1s), inhibitors) [µM] | inhibition at 1 µM (DYRK4) [%] | inhibition at 1 µM (DRAK1) [%] | inhibition at 1 µM (JAK2) [%] | EC50 [1, 3] [µM] | EC50 [2, 4] [µM] |
| --- | --- | --- | --- | --- | --- | --- | --- |
| Cc1ccc2c(NS(=O)(=O)c3ccccc3Cl)cccc2c1Oc1ncccc1-c1ccnc(N[C@H]2CCCNC2)n1 [AMG-18] | 0.017 ± 0.004 | 0.193 ± 0.036 | – | – | – | – | – |
| CCOC(=O)Nc1cccc2c(Oc3ncccc3-c3ccnc(N[C@H]4CCCNC4)n3)c(C)ccc12 [G-1749] | – | – | 2.5 | 0 | 2.5 | 0.009 ± 0.003 | 1.31 ± 0.168 |
| CC#CC(=O)Nc1cccc2c(Oc3ncccc3-c3ccnc(N[C@H]4CCCNC4)n3)c(C)ccc12 [G-7658] | – | – | 1 | -4 | 3 | 0.007 ± 0.001 | 0.223 ± 0.033 |
| O=c1cc(-c2n[nH]c3ncc(-c4c(F)cccc4F)cc23)nc(N2CCC(O)CC2)[nH]1 [G-9807] | – | – | – | – | – | 0.018 ± 0.003 | 1.77 ± 0.691 |
